Experiments:
[1] = The drug is tested on Bifidobacterium ruminantium strain: fecal isolate for biotransformation. The drug concentrations were measured before and after a 12-h incubation by liquid-chromatography-coupled mass spectrometry (LC–MS); settings: 2 µM
[2] = The drug is tested on Collinsella aerofaciens strain: ATCC25986 for biotransformation. The drug concentrations were measured before and after a 12-h incubation by liquid-chromatography-coupled mass spectrometry (LC–MS); settings: 2 µM
[3] = The drug is tested on Escherichia coli strain: BW25113 for biotransformation. The drug concentrations were measured before and after a 12-h incubation by liquid-chromatography-coupled mass spectrometry (LC–MS); settings: 2 µM
[4] = roseburia intestinalis, 12 h, 2 µM
Description: The drug is tested on Roseburia intestinalis strain: L1-82 for biotransformation. The drug concentrations were measured before and after a 12-h incubation by liquid-chromatography-coupled mass spectrometry (LC–MS)

[5] = The drug is tested on Clostridium sp. strain: fecal isolate for biotransformation. The drug concentrations were measured before and after a 12-h incubation by liquid-chromatography-coupled mass spectrometry (LC–MS); settings: 2 µM
[6] = The drug is tested on Bacteroides pectinophilus strain: ATCC43243 for biotransformation. The drug concentrations were measured before and after a 12-h incubation by liquid-chromatography-coupled mass spectrometry (LC–MS); settings: 2 µM
[7] = The drug is tested on Bacteroides dorei strain: DSM17855 for biotransformation. The drug concentrations were measured before and after a 12-h incubation by liquid-chromatography-coupled mass spectrometry (LC–MS); settings: phocaeicola dorei, 2 µM
[8] = The drug is tested on Bacteroides fragilis strain: ATCC43859 for biotransformation. The drug concentrations were measured before and after a 12-h incubation by liquid-chromatography-coupled mass spectrometry (LC–MS); settings: 2 µM
[9] = The drug is tested on Providencia stuartii strain: ATCC25827 for biotransformation. The drug concentrations were measured before and after a 12-h incubation by liquid-chromatography-coupled mass spectrometry (LC–MS); settings: 2 µM
[10] = bacteroides thetaiotaomicron, 12 h, 2 µM
Description: The drug is tested on Bacteroides thetaiotaomicron strain: 7330 for biotransformation. The drug concentrations were measured before and after a 12-h incubation by liquid-chromatography-coupled mass spectrometry (LC–MS)

[11] = The drug is tested on Collinsella intestinalis strain: DSM13280 for biotransformation. The drug concentrations were measured before and after a 12-h incubation by liquid-chromatography-coupled mass spectrometry (LC–MS); settings: 2 µM
[12] = bacteroides eggerthii, 12 h, 2 µM
Description: The drug is tested on Bacteroides eggerthii strain: DSM20697 for biotransformation. The drug concentrations were measured before and after a 12-h incubation by liquid-chromatography-coupled mass spectrometry (LC–MS)

[13] = bacteroides intestinalis, 12 h, 2 µM
Description: The drug is tested on Bacteroides intestinalis strain: DSM17393 for biotransformation. The drug concentrations were measured before and after a 12-h incubation by liquid-chromatography-coupled mass spectrometry (LC–MS)

[14] = The drug is tested on Clostridium sporogenes strain: ATCC15579 for biotransformation. The drug concentrations were measured before and after a 12-h incubation by liquid-chromatography-coupled mass spectrometry (LC–MS); settings: 2 µM
[15] = The drug is tested on Coprococcus comes strain: ATCC27758 for biotransformation. The drug concentrations were measured before and after a 12-h incubation by liquid-chromatography-coupled mass spectrometry (LC–MS); assay type: ADME; design: dose 2 uM, timepoint 0 vs 12 hours; settings: 2 µM
[16] = The drug is tested on Bifidobacterium longum subsp. Infantis strain: CCUG52486 for biotransformation. The drug concentrations were measured before and after a 12-h incubation by liquid-chromatography-coupled mass spectrometry (LC–MS); settings: 2 µM
[17] = segatella copri, 12 h, 2 µM
Description: The drug is tested on Prevotella copri strain: DSM18205 for biotransformation. The drug concentrations were measured before and after a 12-h incubation by liquid-chromatography-coupled mass spectrometry (LC–MS)

[18] = The drug is tested on Eubacterium rectale strain: ATCC33656 for biotransformation. The drug concentrations were measured before and after a 12-h incubation by liquid-chromatography-coupled mass spectrometry (LC–MS); settings: agathobacter rectalis, 2 µM
[19] = The drug is tested on Clostridium ramosum strain: DSM1402 for biotransformation. The drug concentrations were measured before and after a 12-h incubation by liquid-chromatography-coupled mass spectrometry (LC–MS); settings: thomasclavelia ramosa, 2 µM

| Bacterial Biotransformation [1] | Bacterial Biotransformation [2] | Bacterial Biotransformation [3] | Bacterial Biotransformation [4] | Bacterial Biotransformation [5] | Bacterial Biotransformation [6] | Bacterial Biotransformation [7] | Bacterial Biotransformation [8] | Bacterial Biotransformation [9] | Bacterial Biotransformation [10] | Bacterial Biotransformation [11] | Bacterial Biotransformation [12] | Bacterial Biotransformation [13] | Bacterial Biotransformation [14] | Bacterial Biotransformation [15] | Bacterial Biotransformation [16] | Bacterial Biotransformation [17] | Bacterial Biotransformation [18] | Bacterial Biotransformation [19] | Structure (SMILES) |
| --- | --- | --- | --- | --- | --- | --- | --- | --- | --- | --- | --- | --- | --- | --- | --- | --- | --- | --- | --- |
| Compound NOT metabolized | Compound NOT metabolized | Compound NOT metabolized | Compound NOT metabolized | Compound NOT metabolized | Compound NOT metabolized | Compound NOT metabolized | Compound NOT metabolized | Compound NOT metabolized | Compound NOT metabolized | Compound NOT metabolized | Compound NOT metabolized | Compound NOT metabolized | Compound NOT metabolized | Compound NOT metabolized | Compound NOT metabolized |  |  |  | N#Cc1ccc(C(c2ccc(C#N)cc2)n2cncn2)cc1 [LETROZOLE] |
| Compound metabolized | Compound NOT metabolized | Compound NOT metabolized | Compound NOT metabolized |  | Compound NOT metabolized | Compound NOT metabolized | Compound NOT metabolized | Compound NOT metabolized | Compound NOT metabolized | Compound NOT metabolized | Compound NOT metabolized | Compound NOT metabolized | Compound NOT metabolized | Compound NOT metabolized | Compound NOT metabolized | Compound NOT metabolized | Compound NOT metabolized |  | CN1CCC(OC(c2ccccc2)c2ccccc2)CC1 |
| Compound NOT metabolized | Compound NOT metabolized | Compound NOT metabolized |  | Compound NOT metabolized | Compound NOT metabolized | Compound metabolized | Compound metabolized | Compound NOT metabolized |  | Compound NOT metabolized | Compound metabolized | Compound NOT metabolized | Compound NOT metabolized | Compound NOT metabolized | Compound NOT metabolized | Compound NOT metabolized | Compound NOT metabolized |  | CC(C)(C)NC(=O)[C@H]1CC[C@H]2[C@@H]3CC[C@H]4NC(=O)C=C[C@]4(C)[C@H]3CC[C@]12C [FINASTERIDE] |
| Compound NOT metabolized | Compound NOT metabolized | Compound NOT metabolized | Compound NOT metabolized |  | Compound NOT metabolized | Compound NOT metabolized | Compound NOT metabolized | Compound NOT metabolized | Compound NOT metabolized | Compound NOT metabolized | Compound NOT metabolized | Compound NOT metabolized | Compound NOT metabolized | Compound NOT metabolized | Compound NOT metabolized | Compound NOT metabolized | Compound NOT metabolized |  | O=C(CCCN1CCC(O)(c2ccc(Cl)cc2)CC1)c1ccc(F)cc1 [HALOPERIDOL] |
|  | Compound NOT metabolized |  | Compound NOT metabolized | Compound NOT metabolized | Compound NOT metabolized | Compound metabolized | Compound metabolized | Compound NOT metabolized | Compound metabolized | Compound NOT metabolized | Compound metabolized | Compound metabolized | Compound NOT metabolized | Compound NOT metabolized | Compound metabolized | Compound metabolized | Compound NOT metabolized |  | CC(=O)OCC(CCn1cnc2cnc(N)nc21)COC(C)=O [FAMCICLOVIR] |
| Compound NOT metabolized | Compound NOT metabolized |  | Compound NOT metabolized | Compound NOT metabolized | Compound NOT metabolized | Compound NOT metabolized | Compound NOT metabolized | Compound NOT metabolized | Compound NOT metabolized | Compound NOT metabolized | Compound NOT metabolized | Compound NOT metabolized | Compound NOT metabolized |  | Compound NOT metabolized | Compound NOT metabolized | Compound NOT metabolized |  | CC(C)(C(=O)O)c1ccc(C(O)CCCN2CCC(C(O)(c3ccccc3)c3ccccc3)CC2)cc1 (stereo not given) [FEXOFENADINE] |
|  | Compound NOT metabolized | Compound NOT metabolized | Compound NOT metabolized | Compound NOT metabolized | Compound NOT metabolized | Compound NOT metabolized | Compound metabolized | Compound NOT metabolized | Compound NOT metabolized | Compound NOT metabolized | Compound NOT metabolized | Compound NOT metabolized |  | Compound NOT metabolized | Compound NOT metabolized |  | Compound NOT metabolized |  | COc1ccc2cc([C@H](C)C(=O)O)ccc2c1 [NAPROXEN] |
|  | Compound NOT metabolized |  |  |  | Compound NOT metabolized | Compound metabolized | Compound NOT metabolized |  | Compound NOT metabolized | Compound NOT metabolized | Compound NOT metabolized |  | Compound NOT metabolized | Compound NOT metabolized |  | Compound NOT metabolized |  | Compound NOT metabolized | CCN(CC)CCOC(=O)C1(C2CCCCC2)CCCCC1 [DICYCLOMINE] |

| Structure (SMILES) | Bacterial Biotransformation [1] | Bacterial Biotransformation [2] | Bacterial Biotransformation [3] | Bacterial Biotransformation [4] | Bacterial Biotransformation [5] | Bacterial Biotransformation [6] | Bacterial Biotransformation [7] | Bacterial Biotransformation [8] | Bacterial Biotransformation [9] | Bacterial Biotransformation [10] | Bacterial Biotransformation [11] | Bacterial Biotransformation [12] | Bacterial Biotransformation [13] | Bacterial Biotransformation [14] | Bacterial Biotransformation [15] | Bacterial Biotransformation [16] | Bacterial Biotransformation [17] | Bacterial Biotransformation [18] | Bacterial Biotransformation [19] |
| --- | --- | --- | --- | --- | --- | --- | --- | --- | --- | --- | --- | --- | --- | --- | --- | --- | --- | --- | --- |
| Nc1nc(N)nc(-c2cc(Cl)ccc2Cl)n1.O=C(O)/C=C\C(=O)O [IRSOGLADINE MALEATE] | Compound metabolized | Compound NOT metabolized |  | Compound NOT metabolized | Compound NOT metabolized | Compound NOT metabolized | Compound metabolized | Compound NOT metabolized | Compound NOT metabolized | Compound NOT metabolized | Compound NOT metabolized | Compound NOT metabolized | Compound NOT metabolized | Compound NOT metabolized | Compound NOT metabolized |  | Compound NOT metabolized |  |  |
| Cc1ccnc2c1NC(=O)c1cccnc1N2C1CC1 [NEVIRAPINE] | Compound NOT metabolized | Compound NOT metabolized |  | Compound NOT metabolized | Compound metabolized | Compound NOT metabolized | Compound NOT metabolized | Compound NOT metabolized | Compound NOT metabolized | Compound NOT metabolized | Compound NOT metabolized | Compound NOT metabolized | Compound NOT metabolized | Compound NOT metabolized | Compound NOT metabolized | Compound NOT metabolized | Compound NOT metabolized |  |  |

— ChEMBL document CHEMBL5303573, “Mapping human microbiome drug metabolism by gut bacteria and their genes” (Nature, 2019)
